In patent US20090149531A1, “CHEMICAL COMPOSITION DERIVED FROM P-HYDROXYPHENYL PROPIONIC ACID FOR THE TREATMENT OF PSORIASIS” (APOTEKNOS PARA LA PIEL, S.L., priority 2007, published 2009):

Assays:
[1] = Signs of toxicity and deaths in the hairless rat study; assay type: in vivo
Description: A Control Group was included, administered only with the vehicle (absolute ethanol).
(§1) The treatments were administered topically, once a day for 10 days (100 μg/side/animal). The animals were weighed on a daily basis throughout the study and the grade of erythema was evaluated (0=Absence of erythema, 1=Low grade erythema, 3=High grade erythema). On the last day of the study, day 11, the amount of corneous material extracted from the epidermis of the animals was evaluated.

[2] = Assessment of erythema in the hairless rat study; assay type: in vivo, hairless rats; settings: Calcitriol 0.01% topical once a day, 0=absence, 1=low grade, 3=high grade
Description: (§2) To do this Calcitriol was used as the reference product at 0.01% and compound A was used as the test product at 1% and 0.1% (100 μg/cm^2 and 10 μg/cm^2, respectively). A Control Group was included, administered only with the vehicle (absolute ethanol).
as §1

[3] = tested on: cell hyperproliferation in hairless rats; experiment: Model of desquamation in hairless rats: corneous material extracted; assay type: in vivo
Description: The activity of compound A on cell hyperproliferation in hairless rats was evaluated using the model of desquamation in hairless rats described in the publication: Bräutigam, M., Hübner, H., Rach, P., Thieroff-Ekerdi, R. “Effects of Calcipotriol (MC 903) and Calcitriol after Topical Application on the Skin of Hairless Rats”, Skin Pharmacol 1992; 5:87-92.
as §2
The animals were randomly distributed into the following experimental groups:
as §1

[4] = Body weight in the hairless rat study; assay type: in vivo, hairless rats; settings: Calcitriol 0.01% topical once a day
Description: as §2, §1

[5] = Calcitriol 0.01% (1 μg/cm^2) topical once a day for 10 days, day 11

C=C1/C(=C\C=C2/CCC[C@]3(C)[C@@H]([C@H](C)CCCC(C)(C)O)CC[C@@H]23)C[C@@H](O)C[C@@H]1O [Calcitriol, 1-alpha,25-dihydroxycholecalciferol, reference compound]
animals that died before the end of the study ([1]; Calcitriol 0.01% group (n 6), repeated administration): Three | signs of toxicity ([1]; rat, in vivo): clear signs of toxicity were detected | Assessment of erythema (mean grade) ([2]; Baseline): 0.0 ± 0.00 | Assessment of erythema (mean grade) ([2]; Day 2): 0.0 ± 0.00 | Assessment of erythema (mean grade) ([2]; Day 3): 0.0 ± 0.00 | Assessment of erythema (mean grade) ([2]; Day 4): 0.0 ± 0.00 | Assessment of erythema (mean grade) ([2]; Day 5): 0.0 ± 0.00 | Assessment of erythema (mean grade) ([2]; Day 6): 0.0 ± 0.00 | Assessment of erythema (mean grade) ([2]; Day 7): 0.0 ± 0.00 | Assessment of erythema (mean grade) ([2]; Day 8): 1.0 ± 0.00 | Assessment of erythema (mean grade) ([2]; Day 9): 1.5 ± 0.22 | Assessment of erythema (mean grade) ([2]; Day 10): 2.0 ± 0.20 | Assessment of erythema (mean grade) ([2]; Day 11): 2.0 ± 0.00 | amount of corneous material extracted, total sum of the right and left flanks, Portal No, 1 [3, 5]: 13.5 ± 4.89 mg | amount of corneous material extracted, total sum of the right and left flanks, Portal No, 2 [3, 5]: 7.7 ± 1.43 mg | amount of corneous material extracted, total sum of the right and left flanks, Portal No, 3 [3, 5]: 5.9 ± 0.94 mg | amount of corneous material extracted, total sum of the right and left flanks, Portal No, 4 [3, 5]: 4.5 ± 0.60 mg | amount of corneous material extracted, total sum of the right and left flanks, Portal No, 5 [3, 5]: 3.7 ± 0.35 mg | amount of corneous material extracted, total sum of the right and left flanks, Portal No, 6 [3, 5]: 21.7 ± 2.07 mg | amount of corneous material extracted compared with the other experimental groups ([3]; Calcitriol 0.01%, topical 0.2 ml/animal): clearly greater than that extracted in the other experimental groups | Body weight ([4]; Baseline): 0.0 ± 0.00 g | Body weight ([4]; Day 2): 0.0 ± 0.00 g | Body weight ([4]; Day 3): 0.0 ± 0.00 g | Body weight ([4]; Day 4): 0.0 ± 0.00 g | Body weight ([4]; Day 5): 0.0 ± 0.00 g | Body weight ([4]; Day 6): 0.0 ± 0.00 g | Body weight ([4]; Day 7): 0.0 ± 0.00 g | Body weight ([4]; Day 8): 1.0 ± 0.00 g | Body weight ([4]; Day 9): 1.5 ± 0.22 g | Body weight ([4]; Day 10): 2.0 ± 0.20 g | Body weight ([4]; Day 11): 2.0 ± 0.00 g
